# Data: PubChem BioAssay AID256 (DTP/NCI, 2004)
# Where “and” joins values, the source holds several entries; their conditions need not be identical. Identical values can stand only once. Toxic doses and inconclusive results are not listed.
# Tested on: CD2F1 mice, L1210 leukemia ip, survival T/C
# Assay: NCI In Vivo Anticancer Drug Screen. Data for tumor model L1210 Leukemia (intraperitoneal) in CD2F1 (CDF1) mice
# Details: higher = longer survival
# Outline: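 Transplantable tumor in mice; compound-treated vs vehicle-treated groups. Read-out = treated/control ratio of the measured endpoint.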
# [1] = endpoint: mean survival time, dose: 6.25 mg/kg/injection, schedule: Q01DX009 (ip), vehicle: other
# [2] = endpoint: mean survival time, dose: 12.5 mg/kg/injection, schedule: Q01DX009 (ip), vehicle: other
# [3] = endpoint: mean survival time, dose: 25.0 mg/kg/injection, schedule: Q01DX009 (ip), vehicle: other
# [4] = endpoint: mean survival time, dose: 100.0 mg/kg/injection, schedule: Q04DX003 (ip), vehicle: saline with Tween-80
# [5] = endpoint: mean survival time, dose: 200.0 mg/kg/injection, schedule: Q04DX003 (ip), vehicle: saline with Tween-80
# [6] = endpoint: mean survival time, dose: 400.0 mg/kg/injection, schedule: Q04DX003 (ip), vehicle: saline with Tween-80
# [7] = endpoint: mean survival time, dose: 100.0 mg/kg/injection, schedule: Q01DX001 (ip), vehicle: saline
# [8] = endpoint: mean survival time, dose: 200.0 mg/kg/injection, schedule: Q01DX001 (ip), vehicle: saline
# [9] = endpoint: mean survival time, dose: 400.0 mg/kg/injection, schedule: Q01DX001 (ip), vehicle: saline
# [10] = endpoint: mean survival time, dose: 100.0 mg/kg/injection, schedule: Q01DX009 (ip), vehicle: saline with Tween-80
# [11] = endpoint: mean survival time, dose: 100.0 mg/kg/injection, schedule: Q04DX002 (ip), vehicle: saline with Tween-80
# [12] = endpoint: mean survival time, dose: 200.0 mg/kg/injection, schedule: Q04DX002 (ip), vehicle: saline with Tween-80
# [13] = endpoint: mean survival time, dose: 100.0 mg/kg/injection, schedule: Q04DX002 (ip), vehicle: saline
# [14] = endpoint: mean survival time, dose: 200.0 mg/kg/injection, schedule: Q04DX002 (ip), vehicle: saline
# [15] = endpoint: mean survival time, dose: 400.0 mg/kg/injection, schedule: Q04DX002 (ip), vehicle: saline
# [16] = endpoint: mean survival time, dose: 100.0 mg/kg/injection, schedule: Q01DX009 (ip), vehicle: Klucel (hydroxypropylcellulose) (HPC)
# [17] = endpoint: mean survival time, dose: 200.0 mg/kg/injection, schedule: Q01DX009 (ip), vehicle: Klucel (hydroxypropylcellulose) (HPC)
# [18] = endpoint: mean survival time, dose: 400.0 mg/kg/injection, schedule: Q01DX009 (ip), vehicle: Klucel (hydroxypropylcellulose) (HPC)
smiles,measurement,setting,value
O=C(O)c1c2c(nc3ccccc13)-c1cccc3c1N(CCC3)C2,T/C,[1],100 % of control
same,T/C,[2],103 % of control
same,T/C,[3],103 % of control
same,T/C,"endpoint: mean survival time, dose: 50.0 mg/kg/injection, schedule: Q01DX009 (ip), vehicle: other",100 % of control
same,T/C,"endpoint: mean survival time, dose: 100.0 mg/kg/injection, schedule: Q01DX001 (ip), vehicle: other",100 % of control
same,T/C,"endpoint: mean survival time, dose: 200.0 mg/kg/injection, schedule: Q01DX001 (ip), vehicle: other",97 % of control
same,T/C,"endpoint: mean survival time, dose: 400.0 mg/kg/injection, schedule: Q01DX001 (ip), vehicle: other",97 % of control
CCOC(=O)C(=CCBr)C(=O)OCC,T/C,"endpoint: mean survival time, dose: 1.56 mg/kg/injection, schedule: Q01DX009 (ip), vehicle: other",100 % of control
same,T/C,"endpoint: mean survival time, dose: 3.13 mg/kg/injection, schedule: Q01DX009 (ip), vehicle: other",100 % of control
same,T/C,[1],107 % of control
same,T/C,[2],100 % of control
same,T/C,[3],102 % of control
C=Cc1ccc(Oc2ccccc2)cc1,T/C,[4],93 % of control
same,T/C,[5],97 % of control
same,T/C,[6],90 % of control
O=C(O)C(CO)C(CO)C(=O)O (stereo not drawn),T/C,"endpoint: mean survival time, dose: 50.0 mg/kg/injection, schedule: Q01DX001 (ip), vehicle: saline",107 % of control
same,T/C,[7],121 % of control
same,T/C,[8],101 % of control
same,T/C,[9],106 % of control
CCCCC[CH2][Sn]([CH2]C)([CH2]C)[O]C(C)=O,T/C,"endpoint: mean survival time, dose: 0.5 mg/kg/injection, schedule: Q04DX003 (ip), vehicle: saline",103 % of control
same,T/C,"endpoint: mean survival time, dose: 0.63 mg/kg/injection, schedule: Q04DX003 (ip), vehicle: saline with Tween-80",95 % of control
same,T/C,"endpoint: mean survival time, dose: 1.0 mg/kg/injection, schedule: Q04DX003 (ip), vehicle: saline",100 % of control
same,T/C,"endpoint: mean survival time, dose: 1.25 mg/kg/injection, schedule: Q04DX003 (ip), vehicle: saline with Tween-80",93 % of control
same,T/C,"endpoint: mean survival time, dose: 2.0 mg/kg/injection, schedule: Q04DX003 (ip), vehicle: saline",91 % of control
same,T/C,"endpoint: mean survival time, dose: 2.5 mg/kg/injection, schedule: Q04DX003 (ip), vehicle: saline with Tween-80",88 % of control
O=C(c1ccccc1)c1ccc(-c2ccccc2)c(=O)o1,T/C,[10],95 % of control
same,T/C,[4],100 % of control
same,T/C,"endpoint: mean survival time, dose: 200.0 mg/kg/injection, schedule: Q01DX009 (ip), vehicle: saline with Tween-80",95 % of control
same,T/C,[5],98 % of control
same,T/C,"endpoint: mean survival time, dose: 400.0 mg/kg/injection, schedule: Q01DX009 (ip), vehicle: saline with Tween-80",92 % of control
same,T/C,[6],102 % of control
O=C1CSC(=O)N1,T/C,[4],94 % of control
same,T/C,[5],93 % of control
same,T/C,[6],92 % of control
O=C1C=CC(=O)c2c(O)ccc(O)c21,T/C,"endpoint: mean survival time, dose: 1.0 mg/kg/injection, schedule: Q04DX003 (ip), vehicle: saline with Tween-80",91 % of control
same,T/C,"endpoint: mean survival time, dose: 2.0 mg/kg/injection, schedule: Q04DX003 (ip), vehicle: saline with Tween-80",104 % of control
same,T/C,"endpoint: mean survival time, dose: 4.0 mg/kg/injection, schedule: Q04DX003 (ip), vehicle: saline with Tween-80",104 % of control
N#CCN1CCc2ccccc2C1,T/C,"endpoint: mean survival time, dose: 100.0 mg/kg/injection, schedule: Q04DX003 (ip), vehicle: Klucel (hydroxypropylcellulose) (HPC)",94 % of control
same,T/C,"endpoint: mean survival time, dose: 200.0 mg/kg/injection, schedule: Q04DX003 (ip), vehicle: Klucel (hydroxypropylcellulose) (HPC)",94 % of control
CN1CC(CO)C(O)C2c3cccc4[nH]cc(c34)CC21 (stereo not drawn),T/C,"endpoint: median survival time, dose: 25.0 mg/kg/injection, schedule: Q04DX003 (ip), vehicle: saline with Tween-80",100 % of control
same,T/C,"endpoint: median survival time, dose: 50.0 mg/kg/injection, schedule: Q04DX003 (ip), vehicle: saline with Tween-80",100 % of control
same,T/C,"endpoint: median survival time, dose: 100.0 mg/kg/injection, schedule: Q04DX003 (ip), vehicle: saline with Tween-80",100 % of control
same,T/C,"endpoint: median survival time, dose: 200.0 mg/kg/injection, schedule: Q04DX003 (ip), vehicle: saline with Tween-80",100 % of control
CC1CC(C)(C)NC(CCC2NC(C)(C)CC(C)O2)O1 (stereo not drawn),T/C,[10],92 % of control
Nc1nnc2c3[nH]cnc3ncn12,T/C,"endpoint: mean survival time, dose: 100.0 mg/kg/injection, schedule: Q01DX001 (ip), vehicle: Klucel (hydroxypropylcellulose) (HPC)",98 % of control
same,T/C,"endpoint: mean survival time, dose: 200.0 mg/kg/injection, schedule: Q01DX001 (ip), vehicle: Klucel (hydroxypropylcellulose) (HPC)",95 % of control
same,T/C,"endpoint: mean survival time, dose: 400.0 mg/kg/injection, schedule: Q01DX001 (ip), vehicle: Klucel (hydroxypropylcellulose) (HPC)",104 % of control
Fc1ccc(NCCS)cc1,T/C,"endpoint: mean survival time, dose: 100.0 mg/kg/injection, schedule: Q01DX009 (ip), vehicle: saline sonified",97 % of control
same,T/C,"endpoint: mean survival time, dose: 200.0 mg/kg/injection, schedule: Q01DX009 (ip), vehicle: saline sonified",98 % of control
same,T/C,"endpoint: mean survival time, dose: 400.0 mg/kg/injection, schedule: Q01DX009 (ip), vehicle: saline sonified",103 % of control
S=C(S)NNc1ccccc1,T/C,[5],91 % of control
CCN(CC)C(=O)Nc1ccc(Cl)cc1,T/C,[11],104 % of control
same,T/C,[12],108 % of control
COC(=O)c1[se]c(C(=O)OC)c(-c2ccccc2)c1-c1ccccc1,T/C,[7],100 % of control
same,T/C,[8],103 % of control
same,T/C,[9],103 % of control
COc1cc(C)n2nnnc2n1,T/C,[7],107 % of control
CN(C1=CC(=O)c2ccccc2C1=O)C1CCCCC1,T/C,[4],93 % of control
same,T/C,[5],93 % of control
same,T/C,[6],104 % of control
Cc1ccc(NC(=S)NCCO)cc1C,T/C,[10],114 % of control
COC(=O)c1cccn1C(=O)c1ccc(C)c(OCc2ccccc2)c1[N+](=O)[O-],T/C,[11],86 % of control
same,T/C,[12],93 % of control
same,T/C,"endpoint: mean survival time, dose: 400.0 mg/kg/injection, schedule: Q04DX002 (ip), vehicle: saline with Tween-80",93 % of control
NC(C(=O)O)C(CC(=O)O)C(=O)O (stereo not drawn),T/C,[13],111 % of control
same,T/C,[14],106 % of control
same,T/C,[15],106 % of control
O=c1oc2c(O)c(O)cc3c(=O)oc4c(O)c(O)cc1c4c23,T/C,"endpoint: mean survival time, dose: 12.5 mg/kg/injection, schedule: Q01DX009 (ip), vehicle: Klucel (hydroxypropylcellulose) (HPC)",100 % of control
same,T/C,"endpoint: mean survival time, dose: 25.0 mg/kg/injection, schedule: Q01DX009 (ip), vehicle: Klucel (hydroxypropylcellulose) (HPC)",113 % of control
same,T/C,"endpoint: mean survival time, dose: 50.0 mg/kg/injection, schedule: Q01DX009 (ip), vehicle: Klucel (hydroxypropylcellulose) (HPC)",113 % of control
same,T/C,[16],106 % of control
same,T/C,[17],95 % of control
same,T/C,[18],103 % of control
O=C(CN1CCCCC1Cl)c1ccccc1 (stereo not drawn),T/C,"endpoint: mean survival time, dose: 25.0 mg/kg/injection, schedule: Q01DX009 (ip), vehicle: saline with Tween-80",102 % of control
same,T/C,"endpoint: mean survival time, dose: 50.0 mg/kg/injection, schedule: Q01DX009 (ip), vehicle: saline with Tween-80",96 % of control
same,T/C,[10],102 % of control
NNC(=O)CC(O)(C1CC1)C1CC1,T/C,[13],112 % of control
same,T/C,[14],96 % of control
same,T/C,[15],100 % of control
O=S(=O)(O)c1ccc(O)cc1,T/C,[7],103 % of control
same,T/C,[8],108 % of control
same,T/C,[9],100 % of control
CCOC(=O)C(=O)Nc1c(C)noc1N,T/C,"endpoint: mean survival time, dose: 100.0 mg/kg/injection, schedule: Q01DX001 (ip), vehicle: saline with Tween-80",109 % of control
same,T/C,[16],93 % of control
same,T/C,"endpoint: mean survival time, dose: 200.0 mg/kg/injection, schedule: Q01DX001 (ip), vehicle: saline with Tween-80",104 % of control
same,T/C,[17],93 % of control
same,T/C,"endpoint: mean survival time, dose: 400.0 mg/kg/injection, schedule: Q01DX001 (ip), vehicle: saline with Tween-80",97 % of control
same,T/C,[18],91 % of control
CC(C)C(N)C(=O)Nc1nncs1 (stereo not drawn),T/C,"endpoint: mean survival time, dose: 25.0 mg/kg/injection, schedule: Q01DX009 (ip), vehicle: saline",103 % of control
same,T/C,"endpoint: mean survival time, dose: 50.0 mg/kg/injection, schedule: Q01DX009 (ip), vehicle: saline",110 % of control
same,T/C,"endpoint: mean survival time, dose: 100.0 mg/kg/injection, schedule: Q01DX009 (ip), vehicle: saline",166 % of control
same,T/C,"endpoint: mean survival time, dose: 200.0 mg/kg/injection, schedule: Q01DX009 (ip), vehicle: saline",117 % of control and 97 % of control
same,T/C,"endpoint: mean survival time, dose: 400.0 mg/kg/injection, schedule: Q01DX009 (ip), vehicle: saline",89 % of control and 90 % of control
same,T/C,"endpoint: median survival time, dose: 12.5 mg/kg/injection, schedule: Q01DX009 (ip), vehicle: saline",94 % of control
same,T/C,"endpoint: median survival time, dose: 25.0 mg/kg/injection, schedule: Q01DX009 (ip), vehicle: saline",109 % of control and 112 % of control
same,T/C,"endpoint: median survival time, dose: 50.0 mg/kg/injection, schedule: Q01DX009 (ip), vehicle: saline",151 % of control
same,T/C,"endpoint: median survival time, dose: 100.0 mg/kg/injection, schedule: Q01DX009 (ip), vehicle: saline",158 % of control
same,T/C,"endpoint: median survival time, dose: 400.0 mg/kg/injection, schedule: Q01DX009 (ip), vehicle: saline",95 % of control
